Measurements as given in patent US9095136B2, “2-IODO imidazole-derivatives” (BAYER INTELLECTUAL PROPERTY GMBH, priority 2011, dated 2015).
Marks after values point to notes of the source that are not given here.

Legend:
[1] = log P by HPLC on reversed-phase columns (EEC directive 79/831 Annex V.A8); assay type: physicochemical; conditions: for logP: pH 2.7
Experimental: The log P values were measured according to EEC directive 79/831 Annex V.A8 by HPLC (High Performance Liquid Chromatography) on reversed-phase columns, using the methods below: […] Calibration was carried out using unbranched alkan-2-ones (having from 3 to 16 carbon atoms) with known log P values (the log P values were determined by the retention times using linear interpolation between two successive alkanones). The lambda maX values were determined in the maxima of the chromatographic signals using the UV spectra from 200 nm to 400 nm.

Venturia inaequalis = test: Example D: Venturia test (apple)/protective; assay type: in vivo; conditions: protective, 100 ppm, evaluation 10 days after inoculation
Experimental: (§1) Solvent: 24.5 parts by weight of acetone • 24.5 parts by weight of dimethylacetamide Emulsifier: 1 part by weight of alkylaryl polyglycol ether To produce a suitable preparation of active compound, 1 part by weight of active compound is mixed with the stated amounts of solvent and emulsifier, and the concentrate is diluted with water to the desired concentration. To test for protective activity, young plants are sprayed with the preparation of active compound at the stated application rate. […] The plants are then placed in a greenhouse at about 21° C. and a relative atmospheric humidity of about 90%.

Phakopsora pachyrhizi = test: Example F: Phakopsora test (soya beans)/protective; assay type: in vivo; conditions: protective, 100 ppm, evaluation 7 days after inoculation
Experimental: (§2) Solvents: 24.5 parts by weight of acetone • 24.5 parts by weight of dimethylacetamide Emulsifier: 1 part by weight of alkylaryl polyglycol ether To produce a suitable preparation of active compound, 1 part by weight of active compound is mixed with the stated amounts of solvent and emulsifier, and the concentrate is diluted with water to the desired concentration. To test for protective activity, young plants are sprayed with the preparation of active compound at the stated application rate.

[2] = system: Blumeria graminis f.sp. hordei; test: Example G: Blumeria graminis test (barley)/protective; assay type: in vivo; conditions: protective, 500 ppm, evaluation 7 days after inoculation
Experimental: as §2, with “Solvent: 49” for “Solvents: 24.5”, “N,N-dimethylacetamide” for “acetone • 24.5 parts by weight of dimethylacetamide”, “rate. After the spray coating has dried on, the plants are dusted with spores of Blumeria graminis f.sp. hordei.” for “rate.”

Septoria tritici [3] = test: Example I: Septoria tritici test (wheat)/protective; assay type: in vivo; conditions: protective, 500 ppm, evaluation 21 days after inoculation
Experimental: as §2, with “Solvent: 49” for “Solvents: 24.5”, “N,N-dimethylacetamide” for “acetone • 24.5 parts by weight of dimethylacetamide”, “rate. After the spray coating has dried on, the plants are sprayed with a spore suspension of Septoria tritici.” for “rate.”

Puccinia triticina = test: Example L: Puccinia triticina test (wheat)/protective; assay type: in vivo; conditions: protective, 500 ppm, evaluation 8 days after inoculation
Experimental: as §2, with “Solvent: 49” for “Solvents: 24.5”, “N,N-dimethylacetamide” for “acetone • 24.5 parts by weight of dimethylacetamide”, “rate. After the spray coating has dried on, the plants are sprayed with spores with a spore suspension of Puccinia triticina.” for “rate.”

Botrytis cinerea = test: Example P: preventative in vivo test with Botrytis cinerea (grey mould); conditions: cucumber, 500 ppm, evaluation 4-5 days after inoculation
Experimental: The active compounds tested are prepared by homogenization in a mixture of acetone/Tween/DMSO and then diluted with water to the desired active compound concentration. Cucumber plants (cultivar “Vert petit de Paris”), sown in a 50/50 peat/pozzolana soil substrate and cultivated at 24° C., are treated at the Z11 cotyledon stage by spraying with the active compound, prepared as above. As a control, plants are treated with the mixture of acetone/Tween/DMSO/water without the active compound. After 24 hours, the plants are inoculated by spraying the cotyledons with an aqueous suspension of cryogenically preserved Botrytis cinerea spores.

Puccinia recondita [4] = test: Example T: preventative in vivo test with Puccinia recondita (brown rust on wheat); conditions: 500 ppm, evaluation 10 days after inoculation
Experimental: The active compounds tested are prepared by homogenization in a mixture of acetone/Tween/DMSO and then diluted with water to the desired active compound concentration. Wheat plants (cultivar “Scipion”), sown in a 50/50 peat/pozzolana soil substrate and cultivated at 22° C. (12 h)/20° C. (12 h), are treated at the 1-leaf stage (height 10 cm) by spraying with the active compound, prepared as above. As a control, plants are treated with the mixture of acetone/Tween/DMSO/water without the active compound. After 24 hours, the plants are inoculated by spraying the leaves with an aqueous suspension of Puccinia recondita spores.

Septoria tritici [5] = test: Example U: preventative in vivo test with Septoria tritici (leaf blotch disease on wheat); conditions: 500 ppm, evaluation 21 to 28 days after inoculation
Experimental: The active compounds tested are prepared by homogenization in a mixture of acetone/Tween/DMSO and then diluted with water to the desired active compound concentration. Wheat plants (cultivar “Scipion”), sown in a 50/50 peat/pozzolana soil substrate and cultivated at 22° C. (12 h)/20° C. (12 h), are treated at the 1-leaf stage (height 10 cm) by spraying with the active compound, prepared as above. As a control, plants are treated with the mixture of acetone/Tween/DMSO/water without the active compound. After 24 hours, the plants are inoculated by spraying the leaves with an aqueous suspension of cryogenically preserved Septoria tritici spores.

Sphaerotheca fuliginea = test: Example V: preventative in vivo test with Sphaerotheca fuliginea (powdery mildew on cucumber); conditions: 500 ppm, evaluation 12 days after inoculation
Experimental: The active compounds tested are prepared by homogenization in a mixture of acetone/Tween/DMSO and then diluted with water to the desired active compound concentration. Cucumber plants (cultivar “Vert petit de Paris”), sown in a 50/50 peat/pozzolana soil substrate and cultivated at 24° C., are treated at the Z11 cotyledon stage by spraying with the active compound, prepared as above. As a control, plants are treated with the mixture of acetone/Tween/DMSO/water without the active compound. After 24 hours, the plants are inoculated by spraying the leaves with an aqueous suspension of Sphaerotheca fuliginea spores. The inoculated cucumber plants are incubated at about 20° C./25° C. and a relative atmospheric humidity of 60/70%.

Uromyces appendiculatus [6] = test: Example W: preventative in vivo test with Uromyces appendiculatus (bean rust); conditions: 500 ppm, evaluation 10 days after inoculation
Experimental: The active compounds tested are prepared by homogenization in a mixture of acetone/Tween/DMSO and then diluted with water to the desired active compound concentration. Bean plants (cultivar “Saxa”), sown in a 50/50 peat/pozzolana soil substrate and cultivated at 24° C., are treated at the 2-leaf stage (height 9 cm) by spraying with the active compound, prepared as above. As a control, plants are treated with the mixture of acetone/Tween/DMSO/water without the active compound. After 24 hours, the plants are inoculated by spraying the leaves with an aqueous suspension of Uromyces appendiculatus spores.

Pyricularia oryzae [7] = assay type: in vivo; conditions: rice, protective, 500 ppm, evaluation 7 days after inoculation
Puccinia recondita [8] = test: Example X: Puccinia test (wheat)/protective, comparison; assay type: in vivo; conditions: protective, application rate 500 ppm, evaluation 7-9 days after inoculation
Experimental: as §2, with “Solvent: 49” for “Solvents: 24.5”, “N,N-dimethylformamide” for “acetone • 24.5 parts by weight of dimethylacetamide”, “rate. One day after this treatment, the plants are inoculated with an aqueous spore suspension of Puccinia recondita.” for “rate.”

Uromyces appendiculatus [9] = test: Example E: Uromyces test (bean)/protective; assay type: in vivo; conditions: protective, 10 ppm, evaluation 10 days after inoculation
Experimental: as §1, with “Solvents:” for “Solvent:”

Alternaria brassicae = test: Example O: preventative in vivo test with Alternaria brassicae (leaf spot on radish); conditions: 500 ppm, evaluation 5 days after inoculation
Experimental: The active compounds tested are prepared by homogenization in a mixture of acetone/Tween/DMSO and then diluted with water to the desired active compound concentration. Radish plants (cultivar “Pernod Clair”), sown in a 50/50 peat/pozzolana soil substrate and cultivated at 17° C., are treated at the 2-leaf stage by spraying with the active compound, prepared as above. As a control, plants are treated with the mixture of acetone/Tween/DMSO/water without the active compound. After 24 hours, the plants are inoculated by spraying the leaves with an aqueous suspension of Alternaria brassicae spores.

Pyrenophora teres = test: Example R: preventative in vivo test with Pyrenophora teres (net blotch on barley); conditions: 500 ppm, evaluation 12 days after inoculation
Experimental: The active compounds tested are prepared by homogenization in a mixture of acetone/Tween/DMSO and then diluted with water to the desired active compound concentration. Barley plants (cultivar “Plaisant”), sown in a 50/50 peat/pozzolana soil substrate and cultivated at 22° C. (12 h)/20° C. (12 h), are treated at the 1-leaf stage (height 10 cm) by spraying with the active compound, prepared as above. As a control, plants are treated with the mixture of acetone/Tween/DMSO/water without the active compound. After 24 hours, the plants are inoculated by spraying the leaves with an aqueous suspension of Pyrenophora teres spores.

Pyricularia oryzae [10] = assay type: in vivo; conditions: rice, preventative, 500 ppm, evaluation 6 days after inoculation
Uromyces appendiculatus [11] = test: Example Y: Uromyces test (beans)/protective, comparison; assay type: in vivo; conditions: protective, application rate 10 ppm, evaluation 10 days after inoculation
Experimental: as §1, with “Solvents:” for “Solvent:”

Septoria tritici [12] = test: Example Z: Septoria tritici test (wheat)/protective, comparison; assay type: in vivo; conditions: protective, application rate 250 ppm, evaluation 21 days after inoculation
Experimental: Solvent: 49 parts by weight of N,N-dimethylacetamide Emulsifier: 1 part by weight of alkylaryl polyglycol ether To produce a suitable preparation of active compound, 1 part by weight of active compound or active compound combination is mixed with the stated amounts of solvent and emulsifier, and the concentrate is diluted with water to the desired concentration. To test for protective activity, young plants are sprayed with the preparation of active compound or active compound combination at the stated application rate. After the spray coating has dried on, the plants are sprayed with a spore suspension of Septoria tritici.

For `Fc1ccc([C@]2(Cn3ccnc3I)O[C@H]2c2ccccc2Cl)c(F)c1` (relative stereo) [Example 14, rel-1-{[(2R,3S)-3-(2-chlorophenyl)-2-(2,4-difluorophenyl)oxiran-2-yl]methyl}-2-iodo-1H-imidazole], the chromatographic logP ([1]; pH 2.7, log P(HCOOH)) was 3.23, the chromatographic logP ([1]; pH 2.7, logP) was 3.23 and the Eff. % (Venturia inaequalis) was 100%. It also gave an Eff. % (Phakopsora pachyrhizi) of 100%, an Eff. % [2] of 90% and an Eff. % (Septoria tritici [3]) of 100%. The Eff. % (Puccinia triticina) was 100%, the Efficacy % (Botrytis cinerea) was 97% and the Efficacy % (Puccinia recondita [4]) was 93%. For the same compound, the Efficacy % (Septoria tritici [5]) was 100%, the Efficacy % (Sphaerotheca fuliginea) was 100% and the Efficacy % (Uromyces appendiculatus [6]) was 100%.

`CC(C)(C)C(O)(CCc1ccc(Cl)cc1)Cn1ccnc1I` (stereo not shown) [Example 4] gave an Eff. % (Pyricularia oryzae [7]) of 80% and an Efficacy in % (Puccinia recondita [8]) of 95%.

In the case of `Fc1ccc(C2(Cn3ccnc3I)OC2c2ccccc2Cl)cc1` (stereo not shown) [Example 8], the logP [1] is reported as 3.09^[a], the Eff. % (Venturia inaequalis) is reported as 100% and the Eff. % (Uromyces appendiculatus [9]) is reported as 100%. The Eff. % (Phakopsora pachyrhizi) was 99%, the Efficacy % (Alternaria brassicae) was 88% and the Efficacy % (Pyrenophora teres) was 79%. The Efficacy % (Pyricularia oryzae [10]) was 75%, the Efficacy % (Puccinia recondita [4]) was 97% and the Efficacy % (Septoria tritici [5]) was 100%. It also gave an Efficacy % (Sphaerotheca fuliginea) of 100% and an Efficacy % (Uromyces appendiculatus [6]) of 100%.

With `Fc1cc(Cl)ccc1C1(Cn2ccnc2I)OC1c1ccccc1Cl` (stereo not shown) [Example 11] the logP [1] was 3.7^[a], the Efficacy % (Botrytis cinerea) was 92% and the Efficacy % (Puccinia recondita [4]) was 93%. It also gave an Efficacy % (Septoria tritici [5]) of 100%, an Efficacy % (Sphaerotheca fuliginea) of 100% and an Efficacy % (Uromyces appendiculatus [6]) of 97%.

`OC(Cc1ccc(F)cc1)(Cn1ccnc1)C1(Cl)CC1` (stereo not shown) [drawing 19, reference compound] showed an Efficacy in % (Uromyces appendiculatus [11]) of 65%.

With `OC(Cc1ccc(F)cc1)(Cn1ccnc1)C1(Cl)CC1` (stereo not shown) [drawing 21, reference compound] the Efficacy in % (Septoria tritici [12]) was 43%.

For `CC(C)(C)C(O)(CCc1ccc(Cl)cc1)Cn1ccnc1` (stereo not shown) [reference compound], the Efficacy in % (Puccinia recondita [8]) was 70%.
